In US20090011974A1, “Scavenger Receptor B1 (Cla-1) Targeting for the Treatment of Infection, Sepsis and Inflammation” (priority 2002, published 2009):
Where no end group is shown, it is not given here. [ ]: non-standard residue; d: D form.

Columns and labels:
SR-BI/CLA-1 [1] = type: cell-based, mouse; conditions: 24 h
Method: (§1) Cell culture and treatment.
(§2) RNA isolation and cDNA preparation. The total RNA of cultured cells is isolated and purified using Trizol reagent (Gibco BRL, Grand Island, N.Y.) according to the manufacturer's protocol. The concentration and quality of RNA were determined by UV absorbance at 260 and 280 nm. To prepare cDNA, total RNA (3 μg) is added to a mixture containing the following: 6 μl of 5× first-strand buffer (75 mM KCl, 50 mM Tris-HCl [pH 8.3], 3 mM MgCl2), 1.5 μl of deoxynucleoside triphosphates (10 mM [each] dATP, dCTP, dTTP, and dGTP), 1.5 μl of 0.0156 U (0.4 μg) of random hexamers, and 0.2 U of Moloney murine leukemia virus reverse transcriptase (all from Gibco BRL, Gaithersburg, Md.); 0.004 U of RNasin (Promega, Madison, Wis.); and RNase-free water to a final volume of 30 μl per 3 μg of cDNA. Samples are incubated at 37° C. for 60 min. Preliminary experiments are undertaken to achieve optimal conditions for amplifying mRNA for each of the gene products.
Reverse transcription-PCR (RT-PCR). A mixture of 37.2 μl of RNase-free water, 5 μl of 10× reaction buffer, and 0.5 μl (5 U) of AmpliTaq Gold DNA polymerase (Applied Biosystems, Roche Molecular Systems, Inc., Branchburg, N.J.), sense and antisense primers (1 μl each), and 0.3 μl (3 μCi) of [α-^32P]dCTP (Amersham Pharmacia Biotech, San Diego, Calif.) is vortexed, and 46 μl is aliquoted into each tube, containing 4 μl of cDNA, and overlaid with 50 μl of mineral oil (Sigma Chemical Co.). cDNA is amplified in a Perkin-Elmer (Norwalk, Conn.) System 2400 DNA thermal cycler, with denaturation for 1 min at 94° C., annealing for 1 min at 50° C., and extension for 2 min at 72° C. for GADPH (glyceraldehyde-3-phosphate dehydrogenase) (19 cycles), ABCA1 (28 cycles), SR-BI/CLA-1, and interleukin-1 [3 (IL-1β (27 cycles). The primers used in these analyses are as follows: GADPH, (SEQ ID NO:1) 5′-[…]-3′ and (SEQ ID NO:2) 5′-[…]-3′; SR-BI/CLA-1, (SEQ ID NO:3) 5′-CCA […] GGC TTC TGC-3′ and (SEQ ID NO:4) 5′-CTG AAT GGC CTC CTT ATC C-3′; ABCA1, (SEQ ID NO:5) 5′-CAACTACAAAGCCCTCTTTG-3′ and (SEQ ID NO:6) 5′-CTTGGCTGTTCTCCATGAAG-3′; and IL-1β, (SEQ ID NO:7) 5′-CTG AAA GCT CTC CAC CTC-3′ and (SEQ ID NO:8) 5′-GTG CTG ATG TAC CAG TTG-3′.
(§3) For the densitometry analysis, the intensities of the bands are measured with the Gel-Pro Analyzer 3.0 computer program and normalized with GADPH intensity.

ABCA1 = assay: RT-PCR of ABCA1 mRNA in RAW cells exposed to LPS preparations; type: cell-based, mouse; conditions: inhibitor 20 mM added 2 h before LPS 10 ng/ml, 24 h
Method: as §1, §2
(§4) Reverse transcription-PCR (RT-PCR). […]
as §3

IL-1β = assay: RT-PCR of IL-1β mRNA in RAW cells exposed to LPS preparations; type: cell-based, mouse; conditions: inhibitor 20 mM added 2 h before LPS 10 ng/ml, 24 h
Method: as §1, §2, §4, §3

CLA-1 = target: T1, CLA-1 (Homo sapiens, UniProt Q8WTV0); type: binding
T1 construct: using the expression plasmid pTRE2 (Clontech, Pal Alto, Calif.), encoding a CLA-1 protein (pTRE2-CLA-1); expressed in transfected cells; host or cells: HeLa (Tet-off) cells (Clontech), stably co-transfected with pTRE2-CLA-1 and pTK-Hyg and selected with hygromycin
T1 sequence (Q8WTV0 1-509 isoform Q8WTV0-2): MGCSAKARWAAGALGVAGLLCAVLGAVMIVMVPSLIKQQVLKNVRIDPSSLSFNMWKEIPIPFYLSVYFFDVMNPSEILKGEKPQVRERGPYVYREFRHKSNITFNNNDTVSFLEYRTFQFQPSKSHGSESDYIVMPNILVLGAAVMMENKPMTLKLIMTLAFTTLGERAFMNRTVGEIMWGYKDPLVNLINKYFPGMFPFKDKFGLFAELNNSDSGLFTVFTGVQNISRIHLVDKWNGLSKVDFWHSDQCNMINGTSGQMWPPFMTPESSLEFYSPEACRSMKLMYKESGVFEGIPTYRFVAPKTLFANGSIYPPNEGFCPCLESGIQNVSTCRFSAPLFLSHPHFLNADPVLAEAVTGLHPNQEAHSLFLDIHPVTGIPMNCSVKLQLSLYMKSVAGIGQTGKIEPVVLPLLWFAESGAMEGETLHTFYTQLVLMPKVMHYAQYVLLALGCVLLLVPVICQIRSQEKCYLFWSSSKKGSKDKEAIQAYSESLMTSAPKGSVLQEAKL
Method: The lipopolysaccharide 0111:B4 (Sigma) is iodinated as reported by Ulevitch, R J. (1978) (“THE PREPARATION AND CHARACTERIZATION OF A RADIO IODINATED BACTERIAL LIPOPOLYSACCHARIDE,” Immunochemistry 15:157-164). […] After a 2-hr-incubation on ice, the cells are rinsed with ice-cold HBSS and utilized for radioactivity measurements as reported by Bocharov, A. V. et al. (2001) (“CHARACTERIZATION OF A 95 KDA HIGH AFFINITY HUMAN HIGH DENSITY LIPOPROTEIN-BINDING PROTEIN,” Biochemistry 40:4407-4416). Specific binding is determined as the difference between total and non-specific binding, and normalized by protein content.
HeLa cells grown until 70% confluence in DMEM with 10% FCS are washed with PBS and cultured for 24 hr in serum-free DMEM. […] After washing with ice-cold PBS, the cells are hydrolyzed in 1 N NaOH. Radioactivity is counted in an LKB Wallac Ultragamma counter.

THP-1 cells [2] = assay: LPS-stimulated cytokine production in THP-1 cells (ELISA); type: cell-based, human; conditions: 10 ng/ml LPS, 24 h
Method: (§5) THP-1 and CLA-1 overexpressing HeLa cells. Human monocyte-macrophages, THP-1 (ATCC [American Type Culture Collection] TIB 71), are grown in 48-well plates in RPMI 1640 medium supplemented with 10% fetal calf serum (FCS), penicillin (100 U/ml), and streptomycin (100 μg/ml). All experiments involving LPS-induced interleukin production utilize the same media except that 1% FCS was used. Hela cells were cultured as previously reported (Vishnyakova, T. G. et al. (2003) “BINDING AND INTERNALIZATION OF LIPOPOLY[…] CLA-1, A HUMAN ORTHOLOGUE OF RODENT […] RECEPTOR B1,” J. Biol. Chem 278:22771-22780).
Assays for cytokines and lactate dehydrogenase (LD). […]

THP-1 cells [3] = assay: LTA, Gro-EL and HSP60 stimulated IL-8/IL-6 production in THP-1 cells; type: cell-based, human; conditions: 1 μg/ml LTA or Gro-EL, 10-200 fold excess of peptide
Method: as §5
(§6) Assays for cytokines and lactate dehydrogenase (LD).

[4] = Limulus amebocyte lysate (LAL) assay for LPS incubated with peptides; conditions: RPMI-1640 1% FCS or DPBS; 10 ng/ml LPS, 10 μg/ml peptide, 37° C., 24 h
Description: Limulus Amebocyte Lysate (LAL) Assay for LPS.
Limulus amebocyte lysate (LAL) assay for LPS.

THP-1 cells [5] = assay: TNFα-induced IL-6 and IL-8 secretion in THP-1 cells; type: cell-based, human
Description: as §6

SR-BI/CLA-1 [6] = assay: Competition for 125I-HDL binding sites in RAW cells; set-up: species or system mouse; conditions: 50 μg/ml LPS analogs
Method: Competition Binding Experiments. RAW cells are cultured for 24 hr in serum free DMEM before experiment. […] Cell radioactivity is measured as described in the “LPS-binding assay” section.

Cc1ccc(S(=O)(=O)N[C@@H](Cc2ccccc2)C(=O)CCl)cc1 [TPCK, tosylphenyl chloromethyl ketone]
effect on LPS-induced SR-BI/CLA-1 mRNA level decrease (SR-BI/CLA-1 [1]; inhibitor 20 mM added 2 h before LPS 10 ng/ml): effectively prevented | effect on LPS-induced ABCA1 mRNA level decrease (ABCA1): effectively prevented | effect on LPS-induced increase of IL-1β mRNA (IL-1β): effectively prevented

DWLKAFYDKVAEKLKEAF-P-DWLKAFYDKVAEKLKEAF [D-37PA] ([dD][dW][dL][dK][dA][dF][dY][dD][dK][dV][dA][dE][dK][dL][dK][dE][dA][dF][dP][dD][dW][dL][dK][dA][dF][dY][dD][dK][dV][dA][dE][dK][dL][dK][dE][dA][dF]) [Peptide D-37PA]
competition against 125I-LPS (CLA-1; 1 μg/ml 125I-LPS, mock transfected and CLA-1 overexpressing HeLa cells): competed in a dose-dependent manner | effect on LPS-stimulated cytokine (IL-8, IL-6, TNF-α) production (THP-1 cells [2]): similarly effective in a blocking | effect on LTA and Gro-EL stimulated IL-8 and IL-6 production (THP-1 cells [3]): similarly effective in blocking | effect on LAL activity of LPS in media containing bivalent cations [4]: neither L-37PA nor D-37PA affected LPS's endotoxin activity | effect on TNFα-induced IL-6 and IL-8 production (THP-1 cells [5]): neither peptides was effective in blocking

diphosphoryllipid A [DPLA]
activity as modulator of SR-BI, ABCA1 and IL-1β gene expression compared with other LPS preparations (SR-BI/CLA-1 [1]; 10 ng/ml, RAW cells): the same activity as the complete form of LPS from E. coli | relative activities for the suppressive effect on SR-BI/CLA-1 and ABCA1 expression and SR-BI/CLA-1 protein expression (SR-BI/CLA-1 [1]; 10 ng/ml, RAW cells): LPS (Re595)>LPS (0111:B4)>DPLA>MPLA | decrease of 125I-HDL-binding by forms of LPS (SR-BI/CLA-1 [6]): similarly decreased | competition of unlabelled ligands against 125I-LPS (0111:B4) (CLA-1; 100× excess unlabeled ligand, CLA-1 overexpressing and mock-transfected cells): compete against iodinated LPS in both cell lines
